Results as given in ChEMBL document CHEMBL1201862, “PubChem BioAssay data set” (2004).
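Exposure lasted 48 hours, with cells grown in 96-well plates and compounds tested at five concentrations. GI50 is the concentration that inhibits growth by half.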 Activity calls are given as the source filed them. Rule as the data show it: active = GI50 up to about 1.1 µM and inactive = higher.

Tests used:
Assay in all cases: NCI-60 cell line screen, 48 h
[1] = tested on: 786-0
[2] = tested on: DLD-1
[3] = tested on: HCT-116
[4] = tested on: HCT-15
[5] = tested on: HL-60
[6] = tested on: IGROV-1
[7] = tested on: K562
[8] = tested on: KM12
[9] = tested on: MOLT-4
[10] = tested on: NCI-H460
[11] = tested on: NCI-H522
[12] = tested on: NCI/ADR-RES
[13] = tested on: OVCAR-3
[14] = tested on: RPMI-8226
[15] = tested on: SF-268
[16] = tested on: SF-295
[17] = tested on: SN12C
[18] = tested on: SNB-19
[19] = tested on: U-251
[20] = tested on: UO-31

CCc1nc2cc(/N=N/c3c(O)ccc4ccccc34)ccc2[nH]1
GI50 [1]: 16.1 µM (inactive)
GI50 [2]: 15 µM (inactive)
GI50 [3]: 15.5 µM (inactive)
GI50 [4]: 12.6 µM
GI50 [5]: 2.4 µM (inactive)
GI50 [6]: 19.6 µM (inactive)
GI50 [7]: 8.59 µM (inactive)
GI50 [8]: 11.2 µM (inactive)
GI50 [9]: 7.98 µM (inactive)
GI50 [10]: 16.1 µM (inactive)
GI50 [11]: 18.1 µM (inactive)
GI50 [12]: 22.3 µM (inactive)
GI50 [13]: 16.4 µM (inactive)
GI50 [14]: 10.5 µM (inactive)
GI50 [15]: 22.2 µM (inactive)
GI50 [16]: 20.8 µM (inactive)
GI50 [17]: 20.5 µM (inactive)
GI50 [18]: 31.3 µM (inactive)
GI50 [19]: 16 µM (inactive)
GI50 [20]: 18.8 µM (inactive)

COc1ccc2c(CCNC(C)=O)c(C(C)=O)[nH]c2c1
GI50 [1]: > 100 µM (inactive)
GI50 [2]: > 100 µM (inactive)
GI50 [3]: > 100 µM (inactive)
GI50 [4]: > 100 µM
GI50 [5]: > 100 µM (inactive)
GI50 [6]: > 100 µM (inactive)
GI50 [7]: > 100 µM (inactive)
GI50 [8]: > 100 µM (inactive)
GI50 [9]: > 100 µM (inactive)
GI50 [10]: > 100 µM (inactive)
GI50 [11]: > 100 µM (inactive)
GI50 [13]: > 100 µM (inactive)
GI50 [14]: > 100 µM (inactive)
GI50 [15]: 48.4 µM (inactive)
GI50 [16]: > 100 µM (inactive)
GI50 [17]: > 100 µM (inactive)
GI50 [18]: > 100 µM (inactive)
GI50 [19]: > 100 µM (inactive)
GI50 [20]: > 100 µM (inactive)
